Experimental data taken from ChEMBL document CHEMBL4765464, “Discovery of BMS-986144, a Third-Generation, Pan-Genotype NS3/4A Protease Inhibitor for the Treatment of Hepatitis C Virus Infection” (J Med Chem, 2020).

Legend:
[1] = Oral bioavailability in rat at 5 mg/kg; format: ADME, organism-based; conditions: in vivo
[2] = Drug concentration in cynomolgus monkey plasma at 3 mg/kg, po measured upto 24 hrs; format: ADME, organism-based, Macaca fascicularis; conditions: read-out: Ct
[3] = Clearance in dog at 3 mg/kg, po or 1 mg/kg, iv; format: ADME, organism-based, Canis lupus familiaris; conditions: in vivo
[4] = Cmax in rat at 5 mg/kg, po; format: ADME, organism-based; design: route oral, dose 5 mg/kg; conditions: in vivo
[5] = Selectivity index, ratio of IC50 for inhibition of HCV 6a NS3/4A protease to IC50 for inhibition of HCV 6a NS3/4A protease preincubated for 45 mins in presence of compound
[6] = Inhibition of HCV 2b NS3/4A protease; design: species or system Hepatitis C virus subtype 2b
[7] = Inhibition of HCV 2a NS3/4A protease preincubated for 45 mins in presence of compound; design: species or system Hepatitis C virus subtype 2a
[8] = Ratio of drug concentration in liver to plasma in rat at 5 mg/kg, po measured upto 24 hrs; format: ADME, organism-based; conditions: liver and plasma
[9] = Oral bioavailability in dog at 3 mg/kg; format: ADME, organism-based, Canis lupus familiaris; conditions: in vivo
[10] = Inhibition of recombinant full length NS3/4A protease in Hepatitis C virus subtype 1b replicon infected in human HuH7 cells preincubated for 3 days followed by substrate addition and measured after 2 hrs by renilla luciferase reporter gene assay; format: cell-based; conditions: Huh-7
[11] = Inhibition of recombinant full length NS3/4A protease in Hepatitis C virus subtype 2a replicon infected in human HuH7 cells preincubated for 3 days followed by substrate addition and measured after 2 hrs by renilla luciferase reporter gene assay; format: cell-based; conditions: Huh-7
[12] = Drug concentration in rat plasma at 5 mg/kg, po measured upto 24 hrs; format: ADME, organism-based; conditions: read-out: Ct
[13] = Selectivity index, ratio of IC50 for inhibition of HCV 5a NS3/4A protease to IC50 for inhibition of HCV 5a NS3/4A protease preincubated for 45 mins in presence of compound
[14] = Oral bioavailability in cynomolgus monkey at 3 mg/kg; format: ADME, organism-based, Macaca fascicularis; conditions: in vivo
[15] = Inhibition of HCV 6a NS3/4A protease; design: species or system Hepatitis C virus subtype 6a

## CC[C@@H]1C[C@H](C)CC/C=C\[C@@H]2C[C@@]2(C(=O)NS(=O)(=O)C2(C)CC2)NC(=O)[C@@H]2C[C@@H](Oc3nccc4cc(OC)c(F)cc34)CN2C(=O)[C@H]1NC(=O)OC(C)(C)C(F)(F)F
[1]
  bioavailability: 50%
[2]
  concentration at 24 h: 0.001 µM
[3]
  clearance: 0.3 mL/min/kg
[4]
  Cmax: 12.1 µM
[5]
  Selectivity Index: 6
[6]
  IC50: 2 nM
[7]
  IC50: 0.2 nM
[8]
  Kp at 24 h: 1.5
[9]
  bioavailability: 87%
[10]
  EC50: 1.1 nM
[11]
  EC50: 1.4 nM
[12]
  concentration at 24 h: 3.85 µM
[13]
  Selectivity Index: 10
[14]
  bioavailability: 14%
[15]
  IC50: 0.7 nM
